The values that follow are results of earlier work, collected in patent US20230165856A1, “DAPAGLIFLOZIN AND AMBRISENTAN FOR THE PREVENTION AND TREATMENT OF COVID-19” (AstraZeneca AB, priority 2020, published 2023).

Where two headings read alike, the source gives them in different places.

The target of data set [1] is T1, endothelin A (ETA) receptor (Homo sapiens, UniProt P25101).
T1 sequence (P25101 21-427): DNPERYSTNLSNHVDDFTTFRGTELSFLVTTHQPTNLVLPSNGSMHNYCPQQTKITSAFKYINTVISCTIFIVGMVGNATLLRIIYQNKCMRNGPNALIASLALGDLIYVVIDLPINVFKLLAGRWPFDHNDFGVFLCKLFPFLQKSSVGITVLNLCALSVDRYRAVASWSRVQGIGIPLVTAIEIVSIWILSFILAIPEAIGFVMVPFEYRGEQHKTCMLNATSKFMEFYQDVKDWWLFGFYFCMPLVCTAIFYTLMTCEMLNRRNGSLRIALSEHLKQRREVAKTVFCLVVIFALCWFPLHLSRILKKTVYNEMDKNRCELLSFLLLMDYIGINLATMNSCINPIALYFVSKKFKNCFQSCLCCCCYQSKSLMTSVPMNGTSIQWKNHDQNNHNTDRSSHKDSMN

The conditions of data set [2]: human, in vivo.
The conditions of data set [3]: experimental pig model of acute lung injury.
The conditions of data set [4]: endotoxaemic sheep.
The conditions of data set [5]: HF patients with and without type 2 diabetes mellitus.

In the case of `COC(c1ccccc1)(c1ccccc1)[C@H](Oc1nc(C)cc(C)n1)C(=O)O` [Ambrisentan, (2S)-2-[(4,6-dimethylpyrimidin-2-yl)oxy]-3-methoxy-3,3-diphenylpropanoic acid], in data set [1], the “selectivity for the ETA versus the ETB receptor” value is on record as “approximately 4000 fold”. Also, the “selectivity for the ET-A receptor compared to bosentan” value in data set [1] (compared to bosentan) is given as “greater selectivity”. In the case of `COc1ccccc1Oc1c(NS(=O)(=O)c2ccc(C(C)(C)C)cc2)nc(-c2ncccn2)nc1OCCO` [Bosentan], in data set [2], the RVSP result is “rapid and sustained improvement”; the oxygenation entry was “gradual improvement”. On to `COc1cc(OC)nc(O[C@H](C(=O)O)C(OC)(c2ccccc2)c2ccccc2)n1` [LU-135252], for which, in data set [3], the oxygenation entry is recorded as “improved oxygenation”. On to `COc1ccccc1Oc1c(NS(=O)(=O)c2ccc(C(C)C)cn2)nc(-c2ccnc(-c3nnn[nH]3)c2)nc1OCCO` [Tezosentan], for which the lung injury result in data set [4] is “attenuated lung injury”.

As to `CCOc1ccc(Cc2cc([C@@H]3O[C@H](CO)[C@@H](O)[C@H](O)[C@H]3O)ccc2Cl)cc1` [dapagliflozin], in data set [5], the “cardiovascular (CV) death” value is recorded as “reduced” and the “risk for hospitalization for heart failure (HF)” value is given as “reduce the risk”.
